Data published in patent publication US20260216053A1, “COSMETIC COMPOSITION CONTAINING HOUTTUYNIA CORDATA FERMENTATION EXTRACT” (DAEBONG LS CO., LTD., priority 2022, published 2026).

Key:
Assay type in all cases: cell-based
[1] = system: HaCaT cells; experiment: Evaluation of cytotoxicity, EZ-Cytox assay; details: for HaCaT cell growth rate: versus untreated group 100%
Experimental: (§1) HaCaT cells, which are skin keratinocytes, were provided by Cell Line Service GmbH (Germany). The cells were cultured in 5% CO2 incubator at 37° C. using Dulbecco's modified Eagle's medium (DMEM) containing 1% penicillin-streptomycin and 10% fetal bovine serum (FBS). Subculturing was performed with 2-3 day intervals.
The EZ-cytox assay is a representative method for measuring cell viability that utilizes the principle that a water-soluble tetrazolium salt (WST) reacts with the dehydrogenase of living cells to produce an orange-colored, water-soluble formazan.
To examine cytotoxicity, HaCaT cells were seeded at 1.0×10^4 cells/well in a 96-well plate using DMEM medium containing 10% FBS, and cultured under the condition of 37° C. and 5% CO2 for 24 hours. After exchanging the medium with serum-free DMEM, the cultured cells were treated with a sample to be evaluated. After that, EZ-cytox was added to each well and reacted under the condition of 37° C. and 5% CO2 for 30 minutes, and then absorbance was measured at 450 nm using a microplate reader. The average absorbance value for each sample group was calculated, and this value was compared with the absorbance value of the control group to evaluate cell viability.

[2] = system: hyaluronic acid production in HaCaT cells; experiment: Production of moisturizing factor hyaluronic acid (HA), ELISA; details: 24 hours, supernatant, FIG. 1 and FIG. 2
Experimental: HaCaT cells, which are skin keratinocytes, were provided by Cell Line Service GmbH (Germany). The cells were cultured in 5% CO2 incubator at 37° C. using Dulbecco's modified Eagle's medium (DMEM) containing 1% penicillin-streptomycin and 10% fetal bovine serum (FBS). Subculturing was performed with 2-3 day intervals. HaCaT cells were seeded at 1.0×10^5 cells/well in a 24-well plate and cultured for 24 hours under the condition of 37° C. and 5% CO2. After the cultured cell medium was replaced with serum-free DMEM, a sample was treated at different concentrations and the cells were cultured for 24 hours. Afterwards, the supernatant from each test group was collected and the amount of hyaluronic acid (HA) produced in the medium was measured. A control group was treated with N-acetylglucosamine at a concentration of 10 mM. The measurement of hyaluronic acid production was performed using the Hyaluronan Quantikine ELISA kit (R&D Systems) according to the method provided by the manufacturer.

[3] = system: filaggrin production in HaCaT cells; experiment: Production of moisturizing factor filaggrin (FLG), ELISA; details: 24 hours, cell lysate, FIG. 3 and FIG. 4
Experimental: as §1
HaCaT cells were seeded at 1.0×10^5 cells/well in a 24-well plate and cultured for 24 hours under the condition of 37° C. and 5% CO2. After the cultured cell medium was replaced with serum-free DMEM, a sample was treated at different concentrations and the cells were cultured for 24 hours. Afterwards, the cells of each test group were lysed and proteins were collected. Then, the amount of filaggrin produced in the culture medium extract was measured. The measurement of filaggrin production was performed using the Filaggrin ELISA kit (Cusabio Biotechnology Co., Ltd) according to the method provided by the manufacturer. The result of measuring the amount of filaggrin produced depending on the quercetin treatment is shown in FIG. 3, and the result of measuring the amount of filaggrin produced depending on the treatment with the extracts of the example and comparative example is shown in FIG. 4.

O=c1c(O)c(-c2ccc(O)c(O)c2)oc2cc(O)cc(O)c12 [Quercetin, quercetin]
HaCaT cell growth rate ([1]; 25 μM): 104.3 ± 1.3%
HaCaT cell growth rate ([1]; 50 μM): 105.9 ± 1.0%
HaCaT cell growth rate ([1]; 100 μM): 109.4 ± 2.1%
HaCaT cell growth rate ([1]; 200 μM): 92.8 ± 2.8%
Cytotoxicity for the skin keratinocytes ([1]; HaCaT cells, tested concentrations of Table 2): none of the example, comparative example or quercetin exhibited cytotoxicity
Production of hyaluronic acid [2]: promoted the production of the moisturizing factor hyaluronic acid
Production of filaggrin [3]: promoted the production of the moisturizing factor filaggrin
